According to patent US8318635B2, “Phytotoxicity controlling agent for upland farming and phytotoxicity controlling method using the same” (priority 2006, dated 2012):
Counter-ions that a name gives are not always drawn. Like-named read-outs stand apart in the source and are kept apart here.

How the values were obtained:
[1] = test system: sweet corn (Delicious 100); test: Visual growth study, phytotoxicity index, chemicals scattered on the next day after sowing; conditions: treated next day after sowing, 26 days after treatment, 0 = no growth inhibition, 100 = full dying, 4-(tert-butyl)benzoic acid 1000 g ai/ha in Examples, 0 in Comparative Examples, herbicide dose per label
Experimental: (§1) A wettable powder containing 10% of 4-(tert-butyl)benzoic acid was prepared by blending pulverization of 10 parts of 4-(tert-butyl)benzoic acid, 2 parts of a sodium salt of naphthalenesulfonic acid-formalin condensation product, 2 parts of a polyoxyethylene alkyl ether, 30 parts of diatomaceous earth and 56 parts of clay by using a high-speed air-jet pulverizer.
(§2) These containers were each kept standing in a water vat and water supply for pooling was introduced through the hole opening at the bottom of the water vat.
(§3) For comparison, on the other hand, evaluation was made by conducting growth studies by growing sweet corn, wheat, dry-paddy rice, sorghum, soybean, adzuki bean and rapeseed under the same conditions as in the Examples excepting for the omission of scattering of 4-(tert-butyl)benzoic acid.

wheat (Brigadier) [2] = conditions: in vivo
Experimental: as §1, §2, §3

dry-paddy rice (Labell) [3] = test: Visual growth study, phytotoxicity index, chemicals scattered on the next day after sowing; assay type: in vivo; conditions: treated next day after sowing, 26 days after treatment, 0 = no growth inhibition, 100 = full dying, 4-(tert-butyl)benzoic acid 1000 g ai/ha in Examples, 0 in Comparative Examples, herbicide dose per label
Experimental: as §1, §2, §3

sorghum (Funk's Hybrid) = test: as above; conditions: treated next day after sowing, 11 days after treatment, 0 = no growth inhibition, 100 = full dying, 4-(tert-butyl)benzoic acid 1000 g ai/ha in Examples, 0 in Comparative Examples, herbicide dose per label
Experimental: as §1, §2, §3

soybean (Fukuyutaka) [4] = test: as above
Experimental: as §1, §2, §3

[5] = test system: sweet corn (Delicious 100); test: Visual growth study, phytotoxicity index, chemicals scattered 14 days after sowing; assay type: in vivo; conditions: 1.5 leaves stage, treated 14 days after sowing, 8 days after treatment, 0-100 scale, 4-(tert-butyl)benzoic acid 1000 g ai/ha in Examples, 0 in Comparative Examples, herbicide dose per label
Experimental: (§4) These containers were each kept standing on a water vat filled with a water pool from which water was supplied through the opening in the bottom. […] After 8 days from the chemical treatment and after 14 days from the chemical treatment, visual growth studies were conducted for sweet corn, sorghum and adzuki bean and for wheat, barley, dry-paddy rice, soybean, rapeseed and beet, respectively and the results are shown in Table 2 and Table 3.

wheat (Brigadier) [6] = test: as above; assay type: in vivo
Experimental: as §4

barley (Minori Rokujo) = test: as above; conditions: in vivo
Experimental: as §4

dry-paddy rice (Labell) [7] = test: as above; assay type: in vivo; conditions: 0.8 leaves stage, treated 14 days after sowing, 14 days after treatment, 0-100 scale, 4-(tert-butyl)benzoic acid 1000 g ai/ha in Examples, 0 in Comparative Examples, herbicide dose per label
Experimental: as §4

soybean (Fukuyutaka) [8] = test: as above; assay type: in vivo; conditions: true leaf extraction stage, treated 14 days after sowing, 14 days after treatment, 0-100 scale, 4-(tert-butyl)benzoic acid 1000 g ai/ha in Examples, 0 in Comparative Examples, herbicide dose per label
Experimental: as §4

adzuki bean (Dainagon) = test: as above; assay type: in vivo
Experimental: as §4

rapeseed = test: as above; assay type: in vivo
Experimental: as §4

beet (VIGIL) = test: as above; assay type: in vivo; conditions: true leaf extraction stage, treated 14 days after sowing, 14 days after treatment, 0-100 scale, 4-(tert-butyl)benzoic acid 1000 g ai/ha in Examples, 0 in Comparative Examples, herbicide dose per label
Experimental: as §4

[9] = wheat, 2 leaves stage, treated 14 days after sowing, 14 days after treatment, 0-100 scale, 4-(tert-butyl)benzoic acid 1000 g ai/ha in Examples, 0 in Comparative Examples, herbicide dose per label

## COC[C@H](C)N(C(=O)CCl)c1c(C)csc1C [compound 2, Dimethenamide-P]
[1]
  Phytotoxicity index: 33

## CCNc1nc(Cl)nc(NC(C)C)n1 [compound 3, Atrazine]
[1]
  Phytotoxicity index: 15

## Cc1ccn2nc(S(=O)(=O)Nc3c(F)cccc3F)nc2n1 [compound 4, Flumetsulam]
Wheat (Brigadier) [2]
  Phytotoxicity index: 13

## CCNc1nc(Cl)nc(NC(C)C)n1 [compound 7, Atrazine]
dry-paddy rice (Labell) [3]
  Phytotoxicity index: 35

## CC(C)C1(C)N=C(c2nc3ccccc3cc2C(=O)O)NC1=O (stereo not shown) [compound 8, Imazaquin ammonium salt]
Sorghum (Funk's Hybrid)
  Phytotoxicity index: 45

## COC[C@H](C)N(C(=O)CCl)c1c(C)csc1C [compound 10, Dimethenamide-P]
Soybean (Fukuyutaka) [4]; soybean, treated next day after sowing, 26 days after treatment, 0 = no growth inhibition, 100 = full dying, 4-(tert-butyl)benzoic acid 1000 g ai/ha in Examples, 0 in Comparative Examples, herbicide dose per label
  Phytotoxicity index: 20

## Cn1nc(C(F)(F)F)c(CS(=O)(=O)C2=NOC(C)(C)C2)c1OC(F)F [compound 11]
Soybean (Fukuyutaka) [4]; in vivo
  Phytotoxicity index: 20

## COc1cc(OC)nc(Oc2cccc(Oc3nc(OC)cc(OC)n3)c2C(=O)O)n1 [compound 14, Bispyribac-sodium]
[5]
  Phytotoxicity index: 45

## COC[C@H](C)N(C(=O)CCl)c1c(C)csc1C [compound 15, Dimethenamide-P]
[5]
  Phytotoxicity index: 20

## CS(=O)(=O)c1ccc(C(=O)C2C(=O)CCCC2=O)c([N+](=O)[O-])c1 [compound 16, Mesotrione]
[5]
  Phytotoxicity index: 13

## O=C(Nc1ccc(F)cc1F)c1cccnc1Oc1cccc(C(F)(F)F)c1 [compound 17, Diflufenican]
[5]
  Phytotoxicity index: 35

## CCOC(=O)[C@@H](C)Oc1ccc(Oc2nc3ccc(Cl)cc3o2)cc1 [compound 18, Fenoxaprop-P-ethyl]
Wheat (Brigadier) [6]; [9]
  Phytotoxicity index: 40

## COc1cc(OC)nc(Oc2cccc(Oc3nc(OC)cc(OC)n3)c2C(=O)O)n1 [compound 19, Bispyribac-sodium]
Wheat (Brigadier) [6]; [9]
  Phytotoxicity index: 35

## Cn1nc(C(F)(F)F)c(CS(=O)(=O)C2=NOC(C)(C)C2)c1OC(F)F [compound 20]
Wheat (Brigadier) [6]; in vivo
  Phytotoxicity index: 20

## CS(=O)(=O)c1ccc(C(=O)C2C(=O)CCCC2=O)c([N+](=O)[O-])c1 [compound 21, Mesotrione]
Wheat (Brigadier) [6]; [9]
  Phytotoxicity index: 40

## O=C(Nc1ccc(F)cc1F)c1cccnc1Oc1cccc(C(F)(F)F)c1 [compound 22, Diflufenican]
Wheat (Brigadier) [6]; [9]
  Phytotoxicity index: 15

## Cn1nc(C(F)(F)F)c(CS(=O)(=O)C2=NOC(C)(C)C2)c1OC(F)F [compound 23]
Barley (Minori Rokujo)
  Phytotoxicity index: 18

## COc1cc(OC)nc(Oc2cccc(Oc3nc(OC)cc(OC)n3)c2C(=O)O)n1 [compound 24, Bispyribac-sodium]
dry-paddy rice (Labell) [7]
  Phytotoxicity index: 18

## COC[C@H](C)N(C(=O)CCl)c1c(C)csc1C [compound 25, Dimethenamide-P]
Soybean (Fukuyutaka) [8]
  Phytotoxicity index: 15

## O=C(Nc1ccc(F)cc1F)c1cccnc1Oc1cccc(C(F)(F)F)c1 [compound 26, Diflufenican]
Soybean (Fukuyutaka) [8]
  Phytotoxicity index: 30

## Cn1nc(C(F)(F)F)c(CS(=O)(=O)C2=NOC(C)(C)C2)c1OC(F)F [compound 27]
Adzuki bean (Dainagon); in vivo
  Phytotoxicity index: 25

## O=C(Nc1ccc(F)cc1F)c1cccnc1Oc1cccc(C(F)(F)F)c1 [compound 28, Diflufenican]
Adzuki bean (Dainagon); adzuki bean, true leaf extraction stage, treated 14 days after sowing, 8 days after treatment, 0-100 scale, 4-(tert-butyl)benzoic acid 1000 g ai/ha in Examples, 0 in Comparative Examples, herbicide dose per label
  Phytotoxicity index: 35

## COC[C@H](C)N(C(=O)CCl)c1c(C)csc1C [compound 29, Dimethenamide-P]
rapeseed; rapeseed, two paired leaves extraction stage, treated 14 days after sowing, 14 days after treatment, 0-100 scale, 4-(tert-butyl)benzoic acid 1000 g ai/ha in Examples, 0 in Comparative Examples, herbicide dose per label
  Phytotoxicity index: 10

## Cn1nc(C(F)(F)F)c(CS(=O)(=O)C2=NOC(C)(C)C2)c1OC(F)F [compound 30]
rapeseed; in vivo
  Phytotoxicity index: 40

## COC[C@H](C)N(C(=O)CCl)c1c(C)csc1C [compound 31, Dimethenamide-P]
Beet (VIGIL)
  Phytotoxicity index: 35
